Tests used:
Assay in all cases: area under concentration-response curve (viability) (AUC (a.u.)); higher = less active
Conditions in all cases: 48 h
[1] = test system: CU-ACC2
Procedure, shortened: (§1)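 Library compounds were tested at 11 concentrations against three adrenocortical carcinoma cell lines in 1,536-well plates. CellTiter-Glo luminescence was read after 48 h and normalised per plate to vehicle and empty-well controls. Only inhibitory or non-responding curve classes from fitted concentration-response curves contributed AC50 and area under the curve.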

[2] = test system: NCI-H295R
Procedure, shortened: as §1

[3] = test system: CU-ACC1
Procedure, shortened: as §1

In the case of `C=C(C)[C@@H]1CC[C@]2(C(=O)O)CC[C@]3(C)[C@H](CC[C@@H]4[C@@]5(C)CC[C@H](O)C(C)(C)[C@@H]5CC[C@]43C)[C@@H]12`, the “area under concentration-response curve” value [1] is reported as 646, the “area under concentration-response curve” value [2] is reported as 587 and the “area under concentration-response curve” value [3] is reported as 541.

For `CCOC(=O)c1c(/C(C#N)=C\N)c2ccc(Cl)c(Cl)c2n1C`, the “area under concentration-response curve” value [1] was 478, the “area under concentration-response curve” value [2] was 517 and the “area under concentration-response curve” value [3] was 510.

`CN(CCOc1ccc(CC2SC(=O)NC2=O)cc1)c1ccccn1` (stereo not drawn) was tested, and the “area under concentration-response curve” value [1] was 644, the “area under concentration-response curve” value [2] was 576 and the “area under concentration-response curve” value [3] was 515.

With `CCCOc1ccn2c(C(C)=O)cc(-c3ccccc3[S+](C)(=O)[O-])c2c1` the “area under concentration-response curve” value [1] was 445, the “area under concentration-response curve” value [2] was 527 and the “area under concentration-response curve” value [3] was 485.

In the case of `COc1cc(F)c(C(C)C)cc1-c1ccc(C(F)(F)F)cc1CN1C(=O)O[C@H](c2cc(C(F)(F)F)cc(C(F)(F)F)c2)[C@@H]1C`, the “area under concentration-response curve” value [1] is reported as 505, the “area under concentration-response curve” value [2] is reported as 428 and the “area under concentration-response curve” value [3] is reported as 421.

`C[C@]\12CCC(=O)\C=C1[C@@H]3C[C@@H]3[C@@H]4[C@@H]2CC[C@@]5(C)[C@H]4[C@@H]6C[C@@H]6[C@@]57CCC(=O)O7` was tested, and the “area under concentration-response curve” value [1] was 602, the “area under concentration-response curve” value [2] was 549 and the “area under concentration-response curve” value [3] was 509.

`C#CCC(Cc1cnc2nc(N)nc(N)c2n1)c1ccc(C(=O)N[C@@H](CCC(=O)O)C(=O)O)cc1` (stereo partly drawn) was tested, and the “area under concentration-response curve” value [1] was 509, the “area under concentration-response curve” value [2] was 546 and the “area under concentration-response curve” value [3] was 552.

`COc1cc(Nc2ncc(F)c(Nc3ccc4c(n3)NC(=O)C(C)(C)O4)n2)cc(OC)c1OC` was tested, and the “area under concentration-response curve” value [1] was 612, the “area under concentration-response curve” value [2] was 563 and the “area under concentration-response curve” value [3] was 410.

For `CC#CCn1c(N2CCC[C@@H](N)C2)nc2c1c(=O)n(Cc1nc(C)c3ccccc3n1)c(=O)n2C`, the “area under concentration-response curve” value [1] was 606, the “area under concentration-response curve” value [2] was 561 and the “area under concentration-response curve” value [3] was 503.

In the case of `CCC(C)N1\N=C/N(C1=O)C2=CC=C(C=C2)N3CCN(CC3)C4=CC=C(OC[C@H]5CO[C@@](C[N]6C=NC=N6)(O5)C7=CC=C(Cl)C=C7Cl)C=C4` (stereo partly drawn), the “area under concentration-response curve” value [1] is reported as 676, the “area under concentration-response curve” value [2] is reported as 574 and the “area under concentration-response curve” value [3] is reported as 556.

For `COC1=C(OCCCOC2=C(OC)C=C3C(=O)N4CC(=C)C[C@H]4\C=N/C3=C2)C=C5\N=C/[C@@H]6CC(=C)CN6C(=O)C5=C1`, the “area under concentration-response curve” value [1] was 404, the “area under concentration-response curve” value [2] was 444 and the “area under concentration-response curve” value [3] was 320.

`CC(C)(C)c1cc(C(=O)O)c(NC(=O)Nc2ccc3[nH]ncc3c2)s1` was tested, and the “area under concentration-response curve” value [1] was 614, the “area under concentration-response curve” value [2] was 582 and the “area under concentration-response curve” value [3] was 551.

For `CC(C)Cn1cnc2c(N)nc3ccccc3c21`, the “area under concentration-response curve” value [1] was 683, the “area under concentration-response curve” value [2] was 630 and the “area under concentration-response curve” value [3] was 640.

In the case of `CN1CCC(CC1)COC2=CN=C(N=C2)C3=CC(=CC=C3)CN4/N=C(\C=C/C4=O)C5=CC(=CC=C5)C#N`, the “area under concentration-response curve” value [1] is reported as 596, the “area under concentration-response curve” value [2] is reported as 549 and the “area under concentration-response curve” value [3] is reported as 474.

`C[C@H]1CC2[C@@H]3CCC/4=C/C(=O)/C=C\[C@]4(C)[C@@]3(F)[C@@H](O)C[C@]2(C)[C@@]1(O)C(=O)CO` (stereo partly drawn) was tested, and the “area under concentration-response curve” value [1] was 572, the “area under concentration-response curve” value [2] was 551 and the “area under concentration-response curve” value [3] was 477.

In the case of `Cc1cc(-c2cnn3c(NC[C@H]4C[C@@](C)(O)C4)cc(Oc4cccnc4)nc23)ccc1C(=O)NC1CC1`, the “area under concentration-response curve” value [1] is reported as 775, the “area under concentration-response curve” value [2] is reported as 659 and the “area under concentration-response curve” value [3] is reported as 626.

In the case of `CC(=O)NC(CS)C(=O)O` (stereo not drawn), the “area under concentration-response curve” value [1] is reported as 466, the “area under concentration-response curve” value [2] is reported as 457 and the “area under concentration-response curve” value [3] is reported as 413.

With `C=C[C@H]1CN2CCC1C[C@@H]2C(O)c1ccnc2ccc(OC)cc12` (stereo partly drawn) the “area under concentration-response curve” value [1] was 595, the “area under concentration-response curve” value [2] was 504 and the “area under concentration-response curve” value [3] was 509.

For `N[S+]([O-])(=O)C1=C(Cl)C=C2\N=C/N[S+]([O-])(=O)C2=C1`, the “area under concentration-response curve” value [1] was 646, the “area under concentration-response curve” value [2] was 576 and the “area under concentration-response curve” value [3] was 548.

`CC(=O)OCC(CCn1cnc2cnc(N)nc21)COC(C)=O` was tested, and the “area under concentration-response curve” value [1] was 596, the “area under concentration-response curve” value [2] was 570 and the “area under concentration-response curve” value [3] was 565.

`CC[C@@H](C(N)=O)N1CCCC1=O` was tested, and the “area under concentration-response curve” value [1] was 520, the “area under concentration-response curve” value [2] was 545 and the “area under concentration-response curve” value [3] was 532.

In the case of `CC1(C)S[C@H]2[C@H](NC(=O)[C@@H](N)c3ccc(O)cc3)C(=O)N2[C@H]1C(=O)O`, the “area under concentration-response curve” value [1] is reported as 597, the “area under concentration-response curve” value [2] is reported as 545 and the “area under concentration-response curve” value [3] is reported as 511.

With `CCCCN(CCCC)CC(O)c1cc(Cl)cc2c1-c1ccc(Cl)cc1/C2=C/c1ccc(Cl)cc1` (stereo not drawn) the “area under concentration-response curve” value [1] was 631, the “area under concentration-response curve” value [2] was 582 and the “area under concentration-response curve” value [3] was 546.

`CN(C)CCOC(c1ccccc1)c1ccccc1` was tested, and the “area under concentration-response curve” value [1] was 565, the “area under concentration-response curve” value [2] was 527 and the “area under concentration-response curve” value [3] was 478.

With `NC1=NC(=C(C#N)C(=N1)N)N[C@@H](C2CC2)\C3=N\C4=C(C(=CC=C4F)Cl)C(=O)N3C5=CC=CN=C5` the “area under concentration-response curve” value [1] was 570, the “area under concentration-response curve” value [2] was 526 and the “area under concentration-response curve” value [3] was 511.

`CN(C)[S+](=O)([O-])c1ccc2c(c1)C(=Cc1cc3c([nH]1)CCCC3)C(=O)N2` was tested, and the “area under concentration-response curve” value [1] was 655, the “area under concentration-response curve” value [2] was 576 and the “area under concentration-response curve” value [3] was 594.

With `CN(C)/N=N/c1nc[nH]c1C(N)=O` the “area under concentration-response curve” value [1] was 547, the “area under concentration-response curve” value [2] was 481 and the “area under concentration-response curve” value [3] was 514.

For `O=C(O)[C@@H](c1ccc(OCc2ccc3ccccc3n2)cc1)C1CCCC1`, the “area under concentration-response curve” value [1] was 561, the “area under concentration-response curve” value [2] was 493 and the “area under concentration-response curve” value [3] was 454.

In the case of `Nc1ncnc2c1c(COc1cccc(Cl)c1)nn2C1CCOCC1`, the “area under concentration-response curve” value [1] is reported as 578, the “area under concentration-response curve” value [2] is reported as 525 and the “area under concentration-response curve” value [3] is reported as 461.

`CC(C)NCC(O)c1ccc(O)c(O)c1` (stereo not drawn) was tested, and the “area under concentration-response curve” value [1] was 548, the “area under concentration-response curve” value [2] was 502 and the “area under concentration-response curve” value [3] was 487.

With `C[C@]\12CCC(=O)\C=C1CC[C@H]3[C@@H]4CC[C@](O)(C(=O)CO)[C@@]4(C)C[C@H](O)[C@H]23` the “area under concentration-response curve” value [1] was 549, the “area under concentration-response curve” value [2] was 512 and the “area under concentration-response curve” value [3] was 458.

In the case of `O=C(NCc1ccncc1)C12C[C@H]3C[C@@H](C1)CC(c1ccc(Cl)cc1)(C3)C2`, the “area under concentration-response curve” value [1] is reported as 576, the “area under concentration-response curve” value [2] is reported as 468 and the “area under concentration-response curve” value [3] is reported as 486.

In the case of `C[C@](Cc1c[nH]c2ccccc12)(NC(=O)OC1C2CC3CC(C2)CC1C3)C(=O)NC[C@H](NC(=O)CCC(=O)O)c1ccccc1` (stereo partly drawn), the “area under concentration-response curve” value [1] is reported as 582, the “area under concentration-response curve” value [2] is reported as 537 and the “area under concentration-response curve” value [3] is reported as 510.

With `NC\1=N\C(=O)N(\C=C1)[C@@H]2CS[C@H](CO)O2` the “area under concentration-response curve” value [1] was 612, the “area under concentration-response curve” value [2] was 569 and the “area under concentration-response curve” value [3] was 534.

In the case of `Nc1nc(N)c2nc(-c3cccc(O)c3)c(-c3cccc(O)c3)nc2n1`, the “area under concentration-response curve” value [1] is reported as 499, the “area under concentration-response curve” value [2] is reported as 483 and the “area under concentration-response curve” value [3] is reported as 448.

With `CCCCCCCCCCCCCCCC(=O)O[C@@H]1[C@@H](O)[C@@H](O)[C@@H]([C@H](NC(=O)[C@@H]2C[C@@H](CCC)CN2C)[C@H](C)Cl)O[C@@H]1SC.Cl` the “area under concentration-response curve” value [1] was 583, the “area under concentration-response curve” value [2] was 513 and the “area under concentration-response curve” value [3] was 489.

In the case of `CC[C@@]1(O)C(=O)OCC/2=C1/C=C/3N(CC4=C(CCNC(C)C)C5=CC=CC=C5N=C34)C2=O`, the “area under concentration-response curve” value [1] is reported as 611, the “area under concentration-response curve” value [2] is reported as 654 and the “area under concentration-response curve” value [3] is reported as 538.

With `CN1CCN(CC1)C2=C(NC(=O)C/3=C/NC(=O)/C=C3C(F)(F)F)C=C(C=C2)C4=CC(=CC=C4)CN5CCOCC5` the “area under concentration-response curve” value [1] was 610, the “area under concentration-response curve” value [2] was 514 and the “area under concentration-response curve” value [3] was 508.

For `CC(=O)O[C@H]1C[C@@H]2CC[C@@H]3[C@H](CC[C@@]4(C)[C@H]3C[C@H]([N+]3(C)CCCCC3)[C@@H]4OC(C)=O)[C@@]2(C)C[C@@H]1[N+]1(C)CCCCC1`, the “area under concentration-response curve” value [1] was 584, the “area under concentration-response curve” value [2] was 505 and the “area under concentration-response curve” value [3] was 501.

In the case of `O=C(Nc1ccc2c(c1)CCN(Cc1ncn[nH]1)C2)c1ccccc1-c1ccc(C(F)(F)F)cc1`, the “area under concentration-response curve” value [1] is reported as 505, the “area under concentration-response curve” value [2] is reported as 476 and the “area under concentration-response curve” value [3] is reported as 374.

`C[Se]CCC(N)C(=O)O` (stereo not drawn) was tested, and the “area under concentration-response curve” value [1] was 550, the “area under concentration-response curve” value [2] was 479 and the “area under concentration-response curve” value [3] was 540.

In the case of `CNC[C@H](O)c1cccc(O)c1`, the “area under concentration-response curve” value [1] is reported as 508, the “area under concentration-response curve” value [2] is reported as 449 and the “area under concentration-response curve” value [3] is reported as 440.

For `N#Cc1ccnc(N2C(=O)CC[C@H]2C(=O)N(c2cncc(F)c2)[C@H](C(=O)NC2CC(F)(F)C2)c2ccccc2Cl)c1`, the “area under concentration-response curve” value [1] was 613, the “area under concentration-response curve” value [2] was 560 and the “area under concentration-response curve” value [3] was 486.

`[NH2][Pt]([NH2])([Cl])[Cl]` was tested, and the “area under concentration-response curve” value [1] was 576, the “area under concentration-response curve” value [2] was 514 and the “area under concentration-response curve” value [3] was 528.

`COc1nc(C)cnc1N[S+](=O)([O-])c1cccnc1-c1ccc(-c2nnco2)cc1` was tested, and the “area under concentration-response curve” value [1] was 600, the “area under concentration-response curve” value [2] was 509 and the “area under concentration-response curve” value [3] was 520.

With `COC1=CC=CC=C1C2=CC=CC(=C2)C/3=C(O)/C4=CC(=C(Cl)C=C4NC3=O)C#N` the “area under concentration-response curve” value [1] was 589, the “area under concentration-response curve” value [2] was 562 and the “area under concentration-response curve” value [3] was 542.
